In patent US10472347B2, “Aminopyrazine compounds with A2A antagonist properties” (Merck Sharp & Dohme Corp., priority 2014, dated 2019):

Molecular target: T1, human A2a receptor (Homo sapiens, UniProt P29274)
T1 construct: purchased Perkin-Elmer RBHA2AM400UA; host or cells: HEK293 cells (membranes)
Test: A2a competition binding assay, Scintillation Proximity technology
Settings: membranes from HEK293 cells expressing human A2a receptor; Ki by Cheng-Prusoff equation
Summary of the method: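 Membranes from HEK293 cells expressing human A2a, adenosine deaminase-treated, incubated 1 h at room temperature with compound (3000 to 0.15 nM) and 0.5 nM tritiated pyrazolotriazolopyrimidine radioligand on WGA SPA beads in Ca/Mg-free PBS + 10 mM MgCl2. Non-specific binding with 1 μM CGS15943; Ki by Cheng-Prusoff.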

T1 sequence (P29274 whole entry): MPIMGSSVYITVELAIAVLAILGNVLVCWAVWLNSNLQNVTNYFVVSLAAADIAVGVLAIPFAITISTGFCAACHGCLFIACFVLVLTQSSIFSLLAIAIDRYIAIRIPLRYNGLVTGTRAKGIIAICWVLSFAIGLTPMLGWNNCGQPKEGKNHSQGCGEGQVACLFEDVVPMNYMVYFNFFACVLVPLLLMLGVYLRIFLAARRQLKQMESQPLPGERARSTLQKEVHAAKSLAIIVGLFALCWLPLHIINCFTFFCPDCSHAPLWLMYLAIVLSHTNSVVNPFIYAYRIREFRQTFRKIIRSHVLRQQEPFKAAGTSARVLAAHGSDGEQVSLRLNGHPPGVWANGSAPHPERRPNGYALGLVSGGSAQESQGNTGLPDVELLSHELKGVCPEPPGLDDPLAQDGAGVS

Ki [nM] | Structure (SMILES)
3.3 | Cc1cccnc1CNC(=O)c1nc(C)c(-n2nccn2)nc1N [Ex-277, 3-amino-6-methyl-N-[(3-methylpyridin-2-yl)methyl]-5-(2H-1,2,3-triazol-2-yl)pyrazine-2-carboxamide]
191 | Cc1cccnc1CNC(=O)c1nc(C)c(-n2ccnn2)nc1N [Ex-278, 3-amino-6-methyl-N-[(3-methylpyridin-2-yl)methyl]-5-(1H-1,2,3-triazol-1-yl)pyrazine-2-carboxamide]
59.3 | Cc1nc(C(=O)NCc2ccc(Cl)cc2Cl)c(N)nc1-n1nccn1 [Ex-279, 3-amino-N-(2,4-dichlorobenzyl)-6-methyl-5-(2H-1,2,3-triazol-2-yl)pyrazine-2-carboxamide]
148 | Cc1nc(C(=O)NC2CCNc3ccccc32)c(N)nc1-n1nccn1 (stereo not drawn) [Ex-280, 3-amino-6-methyl-N-(1,2,3,4-tetrahydroquinolin-4-yl)-5-(2H-1,2,3-triazol-2-yl)pyrazine-2-carboxamide]
5.7 | Nc1nc(-n2nccn2)c(Cl)nc1C(=O)N[C@@H]1CCc2ccccc21 [Ex-281, 3-amino-6-chloro-N-[(1R)-2,3-dihydro-1H-inden-1-yl]-5-(2H-1,2,3-triazol-2-yl)pyrazine-2-carboxamide]
1.4 | Cc1cccnc1CNC(=O)c1nc(Cl)c(-n2nccn2)nc1N [Ex-282, 3-amino-6-chloro-N-[(3-methylpyridin-2-yl)methyl]-5-(2H-1,2,3-triazol-2-yl)pyrazine-2-carboxamide]
2.4 | COc1ccccc1CNC(=O)c1nc(Cl)c(-n2nccn2)nc1N [Ex-283, 3-amino-6-chloro-N-(2-methoxybenzyl)-5-(2H-1,2,3-triazol-2-yl)pyrazine-2-carboxamide]
6.5 | Nc1nc(-n2nccn2)c(Cl)nc1C(=O)NCc1ccccc1OC(F)(F)F [Ex-284]
124 | Nc1nc(-n2nccn2)c(Cl)nc1C(=O)N[C@@H](c1ccccc1)C(F)(F)F [Ex-286, 3-amino-6-chloro-5-(2H-1,2,3-triazol-2-yl)-N-[(1S)-2,2,2-trifluoro-1-phenylethyl]pyrazine-2-carboxamide]
131 | C[C@@H](NC(=O)c1nc(Cl)c(-n2nccn2)nc1N)c1ccc2ccccc2n1 [Ex-287, 3-amino-6-chloro-N-[(1R)-1-quinolin-2-ylethyl]-5-(2H-1,2,3-triazol-2-yl)pyrazine-2-carboxamide]
1.9 | Nc1nc(-n2nccn2)c(Cl)nc1C(=O)NCc1ccccc1Br [Ex-288, 3-amino-N-(2-bromobenzyl)-6-chloro-5-(2H-1,2,3-triazol-2-yl)pyrazine-2-carboxamide]
34.8 | Nc1nc(-n2nccn2)c(Cl)nc1C(=O)NCCc1ccccc1Br [Ex-289, 3-amino-N-[2-(2-bromophenyl)ethyl]-6-chloro-5-(2H-1,2,3-triazol-2-yl)pyrazine-2-carboxamide]
318 | CN(Cc1cccc2cccnc12)C(=O)c1nc(Cl)c(-n2nccn2)nc1N [Ex-290, 3-amino-6-chloro-N-methyl-N-(quinolin-8-ylmethyl)-5-(2H-1,2,3-triazol-2-yl)pyrazine-2-carboxamide]
54.8 | Nc1nc(-n2nccn2)c(Cl)nc1C(=O)N1CCc2cccc(Br)c2C1 [Ex-292, 3-[(8-bromo-3,4-dihydroisoquinolin-2(1H)-yl)carbonyl]-5-chloro-6-(2H-1,2,3-triazol-2-yl)pyrazin-2-amine]
107 | Nc1nc(-n2nccn2)c(Cl)nc1C(=O)NC1CCNc2ccccc21 (stereo not drawn) [Ex-293, 3-amino-6-chloro-N-(1,2,3,4-tetrahydroquinolin-4-yl)-5-(2H-1,2,3-triazol-2-yl)pyrazine-2-carboxamide]
68.8 | COc1ccc(CCNC(=O)c2nc(Cl)c(-n3nccn3)nc2N)cc1OC [Ex-294, 3-amino-6-chloro-N-[2-(3,4-dimethoxyphenyl)ethyl]-5-(2H-1,2,3-triazol-2-yl)pyrazine-2-carboxamide]
13.6 | Nc1nc(-n2nccn2)c(Cl)nc1C(=O)NCc1cnn2ccccc12 [Ex-295, 3-amino-6-chloro-N-(pyrazolo[1,5-a]pyridin-3-ylmethyl)-5-(2H-1,2,3-triazol-2-yl)pyrazine-2-carboxamide]
35.6 | Nc1nc(-n2nccn2)c(Cl)nc1C(=O)NCc1cccc2cnccc12 [Ex-296, 3-amino-6-chloro-N-(isoquinolin-5-ylmethyl)-5-(2H-1,2,3-triazol-2-yl)pyrazine-2-carboxamide]
1.65 | Nc1nc(-n2nccn2)c(Cl)nc1C(=O)NCc1cccc2ccncc12 [Ex-297, 3-amino-6-chloro-N-(isoquinolin-8-ylmethyl)-5-(2H-1,2,3-triazol-2-yl)pyrazine-2-carboxamide]
32.9 | Nc1nc(-n2nccn2)c(Cl)nc1C(=O)NCc1nc2ccccc2s1 [Ex-298, 3-amino-N-(1,3-benzothiazol-2-ylmethyl)-6-chloro-5-(2H-1,2,3-triazol-2-yl)pyrazine-2-carboxamide]
33.6 | Nc1nc(-n2nccn2)c(Cl)nc1C(=O)NCc1nc2ccccc2o1 [Ex-299, 3-amino-N-(1,3-benzoxazol-2-ylmethyl)-6-chloro-5-(2H-1,2,3-triazol-2-yl)pyrazine-2-carboxamide]
44.4 | Nc1nc(-n2nccn2)c(Cl)nc1C(=O)NCc1cccc2nccnc12 [Ex-300, 3-amino-6-chloro-N-(quinoxalin-5-ylmethyl)-5-(2H-1,2,3-triazol-2-yl)pyrazine-2-carboxamide]
182 | Nc1nc(-n2nccn2)c(Cl)nc1C(=O)NCc1ccnc2ccccc12 [Ex-301, 3-amino-6-chloro-N-(quinolin-4-ylmethyl)-5-(2H-1,2,3-triazol-2-yl)pyrazine-2-carboxamide]
28.3 | Nc1nc(-n2nccn2)c(Cl)nc1C(=O)NCc1nc2ccccc2[nH]1 [Ex-302, 3-amino-N-(1H-benzimidazol-2-ylmethyl)-6-chloro-5-(2H-1,2,3-triazol-2-yl)pyrazine-2-carboxamide]
14.4 | Nc1ccccc1CNC(=O)c1nc(Cl)c(-n2nccn2)nc1N [Ex-303, 3-amino-N-(2-aminobenzyl)-6-chloro-5-(2H-1,2,3-triazol-2-yl)pyrazine-2-carboxamide]
3.6 | Nc1cccc(F)c1CNC(=O)c1nc(Cl)c(-n2nccn2)nc1N [Ex-304, 3-amino-N-(2-amino-6-fluorobenzyl)-6-chloro-5-(2H-1,2,3-triazol-2-yl)pyrazine-2-carboxamide]
49.5 | Nc1nc(-n2nccn2)c(Cl)nc1C(=O)NCc1cnc2ccccn12 [Ex-305, 3-amino-6-chloro-N-(imidazo[1,2-a]pyridin-3-ylmethyl)-5-(2H-1,2,3-triazol-2-yl)pyrazine-2-carboxamide]
48.6 | Nc1nc(-n2nccn2)c(Cl)nc1C(=O)NCc1ccc2ccccc2n1 [Ex-306, 3-amino-6-chloro-N-(quinolin-2-ylmethyl)-5-(2H-1,2,3-triazol-2-yl)pyrazine-2-carboxamide]
21.6 | Nc1nc(-n2nccn2)c(Cl)nc1C(=O)NCc1cc2ccccc2cn1 [Ex-307, 3-amino-6-chloro-N-(isoquinolin-3-ylmethyl)-5-(2H-1,2,3-triazol-2-yl)pyrazine-2-carboxamide]
34.5 | Nc1nc(-n2nccn2)c(Cl)nc1C(=O)NCc1cc2ccccc2[nH]1 [Ex-308, 3-amino-6-chloro-N-(1H-indol-2-ylmethyl)-5-(2H-1,2,3-triazol-2-yl)pyrazine-2-carboxamide]
